Measurements: patent US5041567A, “Antibacterial monic acid derivatives” (Beecham Group plc, priority 1982, dated 1991)
Converted amounts (≈) assume the structure as drawn. Where two headings read alike, the source gives them in different places.

Columns and labels:
M. suipneumoniae NB12 = assay: MIC against mycoplasma in vitro; type: cell-based; settings: Mesomycoplasma hyopneumoniae, 144 h; M. suipneumoniae NB12; Friis broth, 0.9% agarose, 6 days, 37° C.; read-out: MIC
M. suipneumoniae HK(2) = assay: MIC against mycoplasma in vitro; type: cell-based; settings: Mesomycoplasma hyopneumoniae, 144 h; M. suipneumoniae HK(2); 6 days, 37° C.; read-out: MIC
M. suipneumoniae Str. 11 = assay: MIC against mycoplasma in vitro; type: cell-based; settings: Mesomycoplasma hyopneumoniae
M. suipneumoniae MS 16 = assay: MIC against mycoplasma in vitro; type: cell-based; settings: Mesomycoplasma hyopneumoniae, MS16, 144 h
M. suipneumoniae LABER = assay: MIC against mycoplasma in vitro; type: cell-based; settings: Mesomycoplasma hyopneumoniae, 144 h
M. suipneumoniae TAM 6N = assay: MIC against mycoplasma in vitro; type: cell-based; settings: Mesomycoplasma hyopneumoniae, TAM6N, 144 h; M. suipneumoniae TAM 6N; 6 days, 37° C.; read-out: MIC
[1] = system: M. suipneumoniae ATCC 25095; assay: MIC against mycoplasma in vitro; type: cell-based; settings: Mesomycoplasma hyopneumoniae, ATCC25095, 144 h
M. hyorhinis ATCC 23234 = assay: MIC against mycoplasma in vitro; type: cell-based; settings: Mesomycoplasma hyorhinis, ATCC23234, 144 h
M. hyorhinis ATCC 25021 = assay: MIC against mycoplasma in vitro; type: cell-based; settings: Mesomycoplasma hyorhinis, ATCC25021, 144 h
E. coli NCTC 10418 = assay: MIC against human bacteria in vitro; type: cell-based; settings: Escherichia coli, NCTC10418; E. coli NCTC 10418; agar with 5% chocolated horse blood, 18 hours, 37° C.; read-out: MIC
E. coli ESS = assay: MIC against human bacteria in vitro; type: cell-based; settings: Escherichia coli; E. coli ESS; 5% chocolated horse blood agar, 18 hours; read-out: MIC
K. aerogenes A = assay: MIC against human bacteria in vitro; type: cell-based; settings: Klebsiella aerogenes; K. aerogenes A; 5% chocolated horse blood agar, 18 hours; read-out: MIC
[2] = system: Ps. aeruginosa NCTC 10662; assay: MIC against human bacteria in vitro; type: cell-based; settings: Pseudomonas aeruginosa, NCTC10662; Ps. aeruginosa NCTC 10662; 5% chocolated horse blood agar, 18 hours; read-out: MIC
[3] = system: Haemophilus influenzae Wy21; assay: MIC against human bacteria in vitro; type: cell-based
[4] = system: Neisseria catarrhalis 1502; assay: MIC against human bacteria in vitro; type: cell-based; settings: Neisseria catarrhalis 1502; 5% chocolated horse blood agar, 18 hours; read-out: MIC
Bacillus subtilis 6633 = assay: MIC against human bacteria in vitro; type: cell-based
[5] = system: Corynebacterium xerosis 9755; assay: MIC against human bacteria in vitro; type: cell-based; settings: Corynebacterium xerosis 9755; 5% chocolated horse blood agar, 18 hours; read-out: MIC
Sarcina lutea 8340 = assay: MIC against human bacteria in vitro; type: cell-based; settings: Micrococcus luteus; Sarcina lutea 8340; 5% chocolated horse blood agar, 18 hours; read-out: MIC
Staph. aureus Russell = assay: MIC against human bacteria in vitro; type: cell-based; settings: Staphylococcus aureus; Staph. aureus Russell; 5% chocolated horse blood agar, 18 hours; read-out: MIC
Staph. aureus W2827 = assay: MIC against human bacteria in vitro; type: cell-based; settings: Staphylococcus aureus; Staph. aureus W2827; 5% chocolated horse blood agar, 18 hours; read-out: MIC
Strep. faecalis I = assay: MIC against human bacteria in vitro; type: cell-based; settings: Enterococcus faecalis; Strep. faecalis I; 5% chocolated horse blood agar, 18 hours; read-out: MIC
[6] = system: Strep. pyogenes R80/421-A; assay: MIC against human bacteria in vitro; type: cell-based; settings: Streptococcus pyogenes; Strep. pyogenes R80/421-A; 5% chocolated horse blood agar, 18 hours; read-out: MIC
Strep. agalactiae 2788-B = assay: MIC against human bacteria in vitro; type: cell-based; settings: Streptococcus agalactiae; Strep. agalactiae 2788-B; 5% chocolated horse blood agar, 18 hours; read-out: MIC
Strep. spp. 64/848-C = assay: MIC against human bacteria in vitro; type: cell-based
Strep. pneumoniae CN33 = assay: MIC against human bacteria in vitro; type: cell-based; settings: Streptococcus pneumoniae; Strep. pneumoniae CN33; 5% chocolated horse blood agar, 18 hours; read-out: MIC
S. dublin S7 = assay: MIC against veterinary bacteria in vitro; settings: Salmonella enterica, S7, 18 h
Procedure: (§1) The activity of the compounds of the Examples against various veterinarily important bacteria, was assayed in vitro using two-fold serial dilutions in Diagnostic Sensitivity Test Agar inoculated with 10^4 organisms.

S. typhimurium S18 = assay: MIC against veterinary bacteria in vitro; settings: Salmonella enterica, TYPHIMURIUM, 18 h
Procedure: as §1

Past. multocida PA2 = assay: MIC against veterinary bacteria in vitro; settings: Pasteurella multocida, PA2, 18 h
Procedure: as §1

[7] = system: Erysipelothrix rhusiopathiae NCTC 8163; assay: MIC against veterinary bacteria in vitro; settings: Erysipelothrix rhusiopathiae, NCTC8163, 18 h
Procedure: as §1

[8] = system: Corynebacterium pyogenes CY1; assay: MIC against veterinary bacteria in vitro; settings: CY1, 18 h
Procedure: as §1

[9] = system: Staph. aureus 152 (pen. sens); assay: MIC against veterinary bacteria in vitro; settings: Staphylococcus aureus, 18 h
Procedure: as §1

Staph. aureus Oxford = assay: MIC against veterinary bacteria in vitro; settings: Staphylococcus aureus, 18 h
Procedure: as §1

Strep. uberis SPU1 = assay: MIC against veterinary bacteria in vitro; settings: Streptococcus uberis, SPU1, 18 h
Procedure: as §1

Strep. dysgalactiae SPD1 = assay: MIC against veterinary bacteria in vitro; settings: Streptococcus dysgalactiae, SPD1, 18 h
Procedure: as §1

[10] = system: M. bovigenitalium ATCC 14173; assay: MIC against mycoplasma in vitro; type: cell-based; settings: 144 h

Compound | MIC (M. suipneumoniae NB12) [µg/mL] | MIC (M. suipneumoniae HK(2)) [µg/mL] | MIC (M. suipneumoniae TAM 6N) [µg/mL] | MIC (M. hyorhinis ATCC 23234) [µg/mL] | MIC (M. hyorhinis ATCC 25021) [µg/mL] | MIC (E. coli NCTC 10418) [µg/mL] | MIC (E. coli ESS) [µg/mL] | MIC (K. aerogenes A) [µg/mL] | MIC [2] [µg/mL] | MIC [4] [µg/mL] | MIC [5] [µg/mL] | MIC (Sarcina lutea 8340) [µg/mL] | MIC (Staph. aureus Russell) [µg/mL] | MIC (Staph. aureus W2827) [µg/mL] | MIC (Strep. faecalis I) [µg/mL] | MIC [6] [µg/mL] | MIC (Strep. agalactiae 2788-B) [µg/mL] | MIC (Strep. pneumoniae CN33) [µg/mL] | MIC (S. dublin S7) [µg/mL] | MIC (S. typhimurium S18) [µg/mL] | also measured
C/C(=C\c1ncc(-c2ccccc2)o1)C[C@@H]1OC[C@H](C[C@@H]2O[C@H]2[C@@H](C)[C@H](C)O)[C@@H](O)[C@H]1O [Example 1, 2-(1-normon-2-yl)-5-phenyloxazole A] | 1 (≈ 2.25 µM) | 1 (≈ 2.25 µM) | 1 (≈ 2.25 µM) | 0.5 (≈ 1.13 µM) | 0.5 (≈ 1.13 µM) | > 100 | 10 (≈ 22.5 µM) | > 100 | > 100 | 10 (≈ 22.5 µM) | > 100 | ≥ 100 | 5 (≈ 11.3 µM) | 5 (≈ 11.3 µM) | ≥ 100 | 1 (≈ 2.25 µM) | 5 (≈ 11.3 µM) | 2.5 (≈ 5.64 µM) | > 80 | > 80 | MIC (M. suipneumoniae Str. 11; STR.11, 144 h): 0.5 µg/mL (≈ 1.13 µM); MIC (M. suipneumoniae MS 16): 0.5 µg/mL (≈ 1.13 µM); MIC (M. suipneumoniae LABER): 0.5 µg/mL (≈ 1.13 µM); MIC [1]: 0.5 µg/mL (≈ 1.13 µM); MIC ([3]; Haemophilus influenzae Wy21, 5% chocolated horse blood agar, 18 hours, read-out: MIC): 1 µg/mL (≈ 2.25 µM); MIC (Bacillus subtilis 6633; Bacillus subtilis 6633, 5% chocolated horse blood agar, 18 hours, read-out: MIC): 2.5 µg/mL (≈ 5.64 µM); MIC (Strep. spp. 64/848-C; Strep. spp. 64/848-C, 5% chocolated horse blood agar, 18 hours, read-out: MIC): 2.5 µg/mL (≈ 5.64 µM); MIC (Past. multocida PA2): 1.25 µg/mL (≈ 2.82 µM); MIC [7]: 80 µg/mL (≈ 180 µM); MIC [8]: 80 µg/mL (≈ 180 µM); MIC [9]: 1.25 µg/mL (≈ 2.82 µM); MIC (Staph. aureus Oxford): 1.25 µg/mL (≈ 2.82 µM); MIC (Strep. uberis SPU1): 0.625 µg/mL (≈ 1.41 µM); MIC (Strep. dysgalactiae SPD1): 0.625 µg/mL (≈ 1.41 µM)
C/C(=C\c1ncc(-c2ccc(CO)cc2)o1)C[C@@H]1OC[C@H](C[C@@H]2O[C@H]2[C@@H](C)[C@H](C)O)[C@@H](O)[C@H]1O [Example 13, 5-p-Hydroxymethylphenyl-2-(1-normon-2-yl) oxazole A] | 0.1 (≈ 0.211 µM) | 0.25 (≈ 0.528 µM) | 0.25 (≈ 0.528 µM) | 0.1 (≈ 0.211 µM) | 0.1 (≈ 0.211 µM) | > 128 | 2 (≈ 4.22 µM) | > 128 | > 128 | 4 (≈ 8.45 µM) | 64 (≈ 135 µM) | 128 (≈ 270 µM) | 4 (≈ 8.45 µM) | 4 (≈ 8.45 µM) | > 128 | 4 (≈ 8.45 µM) | 2 (≈ 4.22 µM) | 4 (≈ 8.45 µM) | > 80 | > 80 | MIC (M. suipneumoniae Str. 11; 144 h, M. suipneumoniae Str. 11, 6 days, 37° C., read-out: MIC): 0.1 µg/mL (≈ 0.211 µM); MIC (M. suipneumoniae MS 16; M. suipneumoniae MS 16, 6 days, 37° C., read-out: MIC): 0.1 µg/mL (≈ 0.211 µM); MIC ([1]; M. suipneumoniae ATCC 25095, 6 days, 37° C., read-out: MIC): 0.25 µg/mL (≈ 0.528 µM); MIC [10]: 0.025 µg/mL (≈ 0.0528 µM); MIC ([3]; Haemophilus influenzae, WY21, 18 h): 1 µg/mL (≈ 2.11 µM); MIC (Bacillus subtilis 6633; Bacillus subtilis, 6633, 18 h): 1 µg/mL (≈ 2.11 µM); MIC (Strep. spp. 64/848-C; 18 h): 1 µg/mL (≈ 2.11 µM); MIC (Past. multocida PA2): 0.312 µg/mL (≈ 0.659 µM); MIC [7]: > 80 µg/mL; MIC [8]: > 80 µg/mL; MIC [9]: 1.25 µg/mL (≈ 2.64 µM); MIC (Staph. aureus Oxford): 1.25 µg/mL (≈ 2.64 µM); MIC (Strep. uberis SPU1): 0.312 µg/mL (≈ 0.659 µM); MIC (Strep. dysgalactiae SPD1): 0.625 µg/mL (≈ 1.32 µM)
